Measurements taken from patent US20190047966A1, “NOVEL COMPOUND AND PHARMACOLOGICALLY ACCEPTABLE SALT THEREOF” (MEIJI SEIKA PHARMA CO., LTD., priority 2016, published 2019).
Counter-ions that a name gives are not always drawn.

Key:
[1] = molecular target: T1, human histamine H4 receptor (Homo sapiens, UniProt Q9H3N8); test: Evaluation of Human H4 Receptor Affinity ([3H]histamine binding); conditions: inhibition constant Ki, CHO-K1 membrane preparation, read-out: Evaluation of H4 Receptor Affinity
T1 construct: purchased PerkinElmer Inc; host or cells: CHO-K1
How it was run: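 Radioligand displacement: compound competes with 8.2 nM [3H]histamine at recombinant human H4 receptor in CHO-K1 membranes (Tris-HCl 50 mM pH 7.4, EDTA 1.25 mM; 25 °C, 90 min), with filter-bound radioactivity counted. IC50 was converted to Ki via Cheng-Prusoff (Kd 5.7 nM); 1.0 μM histamine set nonspecific binding.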

[2] = molecular target: human histamine H1 receptor (Homo sapiens, UniProt P35367); test: Evaluation of Human H1 Receptor Affinity ([3H]pyrilamine binding); parameters: purchased PerkinElmer Inc; host or cells: CHO-K1; conditions: inhibition constant Ki, CHO-K1 membrane preparation
Sequence of human histamine H1 receptor (P35367 whole entry): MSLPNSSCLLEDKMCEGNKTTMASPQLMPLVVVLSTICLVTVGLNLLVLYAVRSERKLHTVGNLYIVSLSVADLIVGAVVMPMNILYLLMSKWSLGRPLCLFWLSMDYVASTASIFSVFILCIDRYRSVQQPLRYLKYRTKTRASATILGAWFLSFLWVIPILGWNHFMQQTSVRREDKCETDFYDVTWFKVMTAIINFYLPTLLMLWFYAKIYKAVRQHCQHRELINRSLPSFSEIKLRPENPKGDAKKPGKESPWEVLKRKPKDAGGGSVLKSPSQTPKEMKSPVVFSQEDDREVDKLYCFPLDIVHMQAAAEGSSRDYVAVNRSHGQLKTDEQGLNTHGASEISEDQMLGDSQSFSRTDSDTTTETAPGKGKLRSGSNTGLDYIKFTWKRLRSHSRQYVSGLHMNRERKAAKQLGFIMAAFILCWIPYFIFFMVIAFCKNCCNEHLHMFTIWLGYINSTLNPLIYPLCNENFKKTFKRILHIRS
How it was run: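 Ki values are Cheng-Prusoff conversions of IC50 (Kd 1.1 nM) from radioligand displacement of 1.2 nM [3H]pyrilamine, with 1.0 μM pyrilamine defining nonspecific binding.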

Ki [1] [µM] | Ki [2] [µM] | SMILES
0.1 to 0.5 | < 0.1 | CC12CCC(C(=O)O)(CC1OCCN1CCN(c3nc(N)nc4c3CCc3cc(OCc5ccc(Cl)cc5)ccc3-4)CC1)C2(C)C (stereo not shown) [Example 158, 3-(2-(4-(2-amino-8-((4-chlorobenzyl)oxy)-5,6-dihydrobenzo[h]quinazolin-4-yl)piperazin-1-yl)ethoxy)-4,7,7-trimethylbicyclo[2.2.1]heptane-1-carboxylic acid hydrochloride]
< 0.1 | < 0.1 | CC1(C(=O)O)CCC(OCCN2CCN(c3nc(N)nc4c3CCc3cc(OCc5ccc(Cl)cc5)ccc3-4)CC2)CC1 (stereo not shown) [Example 161, 4-(2-(4-(2-amino-8-((4-chlorobenzyl)oxy)-5,6-dihydrobenzo[h]quinazolin-4-yl)piperazin-1-yl)ethoxy)-1-methylcyclohexane-1-carboxylic acid]
0.1 to 0.5 | 0.1 to 0.5 | CC(C)(C(=O)O)c1ccc(OCCN2CCN(c3nc(N)nc4c3CCc3cc(OCc5ccc(Cl)cc5)ccc3-4)CC2)cc1 [Example 162, 2-(4-(2-(4-(2-amino-8-((4-chlorobenzyl)oxy)-5,6-dihydrobenzo[h]quinazolin-4-yl)piperazin-1-yl)ethoxy)phenyl)-2-methylpropanoic acid]
< 0.1 | < 0.1 | Nc1nc2c(c(N3CCN(CCOCC4(CCC(=O)O)COC4)CC3)n1)CCc1cc(OCc3ccc(Cl)cc3)ccc1-2 [Example 163, 3-(3-((2-(4-(2-amino-8-((4-chlorobenzyl)oxy)-5,6-dihydrobenzo[h]quinazolin-4-yl)piperazin-1-yl)ethoxy)methyl)oxetan-3-yl)propanoic acid]
< 0.1 | < 0.1 | CC1(COCCN2CCN(c3nc(N)nc4c3CCc3cc(OCc5ccc(Cl)cc5)ccc3-4)CC2)CCC(C(=O)O)CC1 (stereo not drawn) [Example 164, cis- or trans-4-((2-(4-(2-amino-8-((4-chlorobenzyl)oxy)-5,6-dihydrobenzo[h]quinazolin-4-yl)piperazin-1-yl)ethoxy)methyl)-4-methylcyclohexane-1-carboxylic acid]
< 0.1 | < 0.1 | CC1(C(=O)O)CCC(COCCN2CCN(c3nc(N)nc4c3CCc3cc(OCc5ccc(Cl)cc5)ccc3-4)CC2)CC1 (stereo not drawn) [Example 165, trans- or cis-4-((2-(4-(2-amino-8-((4-chlorobenzyl)oxy)-5,6-dihydrobenzo[h]quinazolin-4-yl)piperazin-1-yl)ethoxy)methyl)-1-methylcyclohexane-1-carboxylic acid]
0.1 to 0.5 | < 0.1 | Nc1nc2c(c(N3CCN(CCOCCOCC4(C(=O)O)COC4)CC3)n1)CCc1cc(OCc3ccc(Cl)cc3)ccc1-2 [Example 168, 3-((2-(2-(4-(2-amino-8-((4-chlorobenzyl)oxy)-5,6-dihydrobenzo[h]quinazolin-4-yl)piperazin-1-yl)ethoxy)ethoxy)methyl)oxetane-3-carboxylic acid]
0.1 to 0.5 | < 0.1 | Nc1nc2c(c(N3CCN(CCOCC4CC(C(=O)O)C4)CC3)n1)CCc1cc(OCc3ccc(Cl)cc3)ccc1-2 (stereo not drawn) [Example 169, cis- or trans-3-((2-(4-(2-amino-8-((4-chlorobenzyl)oxy)-5,6-dihydrobenzo[h]quinazolin-4-yl)piperazin-1-yl)ethoxy)methyl)cyclobutane-1-carboxylic acid]
< 0.1 | < 0.1 | Nc1nc2c(c(N3CCN(CCOCC4CC(C(=O)O)C4)CC3)n1)CCc1cc(OCc3ccc(Cl)cc3)ccc1-2 (stereo not drawn) [Example 170, trans- or cis-3-((2-(4-(2-amino-8-((4-chlorobenzyl)oxy)-5,6-dihydrobenzo[h]quinazolin-4-yl)piperazin-1-yl)ethoxy)methyl)cyclobutane-1-carboxylic acid]
< 0.1 | < 0.1 | CC(C)(C(=O)O)[C@H]1C[C@@H](OCCN2CCN(c3nc(N)nc4c3CCc3cc(OCc5ccc(Cl)cc5)ccc3-4)CC2)C1 [Example 172, cis-2-(3-(2-(4-(2-amino-8-((4-chlorobenzyl)oxy)-5,6-dihydrobenzo[h]quinazolin-4-yl)piperazin-1-yl)ethoxy)cyclobutyl)-2-methylpropanoic acid]
< 0.1 | < 0.1 | CC(C)(C(=O)O)[C@H]1C[C@H](OCCN2CCN(c3nc(N)nc4c3CCc3cc(OCc5ccc(Cl)cc5)ccc3-4)CC2)C1 [Example 173, trans-2-(3-(2-(4-(2-amino-8-((4-chlorobenzyl)oxy)-5,6-dihydrobenzo[h]quinazolin-4-yl)piperazin-1-yl)ethoxy)cyclobutyl)-2-methylpropanoic acid]
< 0.1 | < 0.1 | CC(C)(C(=O)O)[C@H]1C[C@H](OCCN2CCN(c3nc(N)nc4c3CCc3cc(OCc5ccc(OC(F)(F)F)cc5)ccc3-4)CC2)C1 [Example 174, trans-2-(3-(2-(4-(2-amino-8-((4-(trifluoromethoxy)benzyl)oxy)-5,6-dihydrobenzo[h]quinazolin-4-yl)piperazin-1-yl)ethoxy)cyclobutyl)-2-methylpropanoic acid]
< 0.1 | < 0.1 | N#CC1(C(=O)O)CCC(COCCN2CCN(c3nc(N)nc4c3CCc3cc(OCc5ccc(OC(F)(F)F)cc5)ccc3-4)CC2)CC1 (stereo not shown) [Example 175, 4-((2-(4-(2-amino-8-((4-(trifluoromethoxy)benzyl)oxy)-5,6-dihydrobenzo[h]quinazolin-4-yl)piperazin-1-yl)ethoxy)methyl)-1-cyanocyclohexane-1-carboxylic acid]
< 0.1 | < 0.1 | Nc1nc2c(c(N3CCN(CCOC4CCC(C(=O)O)OC4)CC3)n1)CCc1cc(OCc3ccc(OC(F)(F)F)cc3)ccc1-2 (stereo not shown) [Example 179, 5-(2-(4-(2-amino-8-((4-(trifluoromethoxy)benzyl)oxy)-5,6-dihydrobenzo[h]quinazolin-4-yl)piperazin-1-yl)ethoxy)tetrahydro-2H-pyran-2-carboxylic acid]
< 0.1 | < 0.1 | Nc1nc2c(c(N3CCN(CCO[C@H]4C[C@@H]5[C@H](C4)[C@@]5(F)C(=O)O)CC3)n1)CCc1cc(OCc3ccc(OC(F)(F)F)cc3)ccc1-2 [Example 180, (1R,3r,5S,6s)-3-(2-(4-(2-amino-8-((4-(trifluoromethoxy)benzyl)oxy)-5,6-dihydrobenzo[h]quinazolin-4-yl)piperazin-1-yl)ethoxy)-6-fluorobicyclo[3.1.0]hexane-6-carboxylic acid]
0.1 to 0.5 | < 0.1 | Nc1nc2c(c(N3CCN(CCO[C@H]4CC[C@H]5[C@H](C(=O)O)[C@H]54)CC3)n1)CCc1cc(OCc3ccc(OC(F)(F)F)cc3)ccc1-2 [Example 181, (1S,25,5R,65)-2-(2-(4-(2-amino-8-((4-(trifluoromethoxy)benzyl)oxy)-5,6-dihydrobenzo[h]quinazolin-4-yl)piperazin-1-yl)ethoxy)bicyclo[3.1.0]hexane-6-carboxylic acid]
0.1 to 0.5 | < 0.1 | Nc1nc2c(c(N3CCN(CCOCc4ccc(C(=O)O)s4)CC3)n1)CCc1cc(OCc3ccc(OC(F)(F)F)cc3)ccc1-2 [Example 182, 5-((2-(4-(2-amino-8-((4-(trifluoromethoxy)benzyl)oxy)-5,6-dihydrobenzo[h]quinazolin-4-yl)piperazin-1-yl)ethoxy)methyl)thiophene-2-carboxylic acid]
< 0.1 | < 0.1 | Nc1nc2c(c(N3CCN(CCOc4csc(C(=O)O)c4)CC3)n1)CCc1cc(OCc3ccc(OC(F)(F)F)cc3)ccc1-2 [Example 183, 4-(2-(4-(2-amino-8-((4-(trifluoromethoxy)benzyl)oxy)-5,6-dihydrobenzo[h]quinazolin-4-yl)piperazin-1-yl)ethoxy)thiophene-2-carboxylic acid]
< 0.1 | < 0.1 | Nc1nc2c(c(N3CCN(CCOCC4CCCC(C(=O)O)C4)CC3)n1)CCc1cc(OCc3ccc(OC(F)(F)F)cc3)ccc1-2 (stereo not drawn) [Example 185, trans-3-((2-(4-(2-amino-8-((4-(trifluoromethoxy)benzyl)oxy)-5,6-dihydrobenzo[h]quinazolin-4-yl)piperazin-l-yl)ethoxy)methyl)cyclohexane-1-carboxylic acid dihydrochloride]
0.1 to 0.5 | < 0.1 | CS(=O)(=O)NC(=O)COCCOCCN1CCN(c2nc(N)nc3c2CCc2cc(OCc4ccc(Cl)cc4)ccc2-3)CC1 [Example 187, 2-(2-(2-(4-(2-amino-8-((4-chlorobenzyl)oxy)-5,6-dihydrobenzo[h]quinazolin-4-yl)piperazin-1-yl)ethoxy)ethoxy)-N-(methylsulfonyl)acetamide]
< 0.1 | < 0.1 | CNC(=O)COCCOCCN1CCN(c2nc(N)nc3c2CCc2cc(OCc4ccc(Cl)cc4)ccc2-3)CC1 [Example 188, 2-(2-(2-(4-(2-amino-8-((4-chlorobenzyl)oxy)-5,6-dihydrobenzo[h]quinazolin-4-yl)piperazin-1-yl)ethoxy)ethoxy)-N-methylacetamide dihydrochloride]
< 0.1 | < 0.1 | Nc1nc2c(c(N3CCN(CCO[C@H]4C[C@@H](C(=O)NO)C4)CC3)n1)CCc1cc(OCc3ccc(OC(F)(F)F)cc3)ccc1-2 [Example 189, cis 3-(2-(4-(2-amino-8-((4-(trifluoromethoxy)benzyl)oxy)-5,6-dihydrobenzo[h]quinazolin-4-yl)piperazin-1-yl)ethoxy)-N-hydroxycyclobutane-l-carboxamide]
< 0.1 | < 0.1 | Nc1nc2c(c(N3CCN(CCOCC4CN(C5=NS(=O)(=O)N=C5O)C4)CC3)n1)CCc1cc(OCc3ccc(OC(F)(F)F)cc3)ccc1-2 [Example 190(b), 3-(3-((2-(4-(2-amino-8-((4-(trifluoromethoxy)benzyl)oxy)-5,6-dihydrobenzo[h]quinazolin-4-yl)piperazin-1-yl)ethoxy)methyl)azetidin-1-yl)-4-hydroxy-1,2,5-thiadiazole 1,1-dioxide]
